For this experiment, the system named is HCT-116. Put plainly: Cytotoxicity against human HCT116 cells at 5 ug/mL. In kind it is functional, cell-based.

Active and inactive are the calls of the source. The calls are words filed in the database; no cut-off is given here.

On to `Nc1c2c(c3nc4ccccc4c4c3c1N=C4)NCCC2=O`, for which the result was Active.

These data come from ChEMBL document CHEMBL1158875, “Plakinidine D, a new pyrroloacridine alkaloid from two ascidians of the genus Didemnum” (J Nat Prod, 1997).
